Assay [1] has as its target human G9a enzyme (Homo sapiens (Human), UniProt Q96KQ7). The experiment in a line: G9a enzyme activity assay (TR-FRET). In kind it is biochemical. The conditions noted are these: 1 hour at room temperature. On the procedure:
G9a Enzyme Activity Assay
The biochemical assay to measure G9a enzyme activity relies on time-resolved fluorescence energy transfer (TR-FRET) between europium cryptate (donor) and XL665 (acceptor). TR-FRET is observed when biotinylated histone monomethyl-H3K9 peptide is incubated with cryptate-labeled anti-dimethyl-histone H3K9 antibody (CisBio Cat#61KB2KAE) and streptavidin XL665 (CisBio Cat#610SAXLA), after enzymatic reaction of G9a.
The human G9a enzyme expressed in a baculovirus infected Sf9 cell expression system was obtained from BPS Biosciences (Cat. #51001). Enzyme activity assay was carried out in a white 384-well plate in a final volume of 20 μl, as follow: • 4 μl of vehicle or studied compound 2.5× concentrated prepared in assay buffer (50 mM Tris-HCl, 10 mM NaCl, 4 mM DTT, 0.01% Tween-20 pH9). Final percentage of DMSO was 0.5%. • 2 μl of 1 nM G9a enzyme diluted in assay buffer. Final concentration was 0.2 nM. • Start the reaction by adding 4 μl of substrate mixture containing 20 μM S-adenosylmethionine and 40 nM biotinylated histone monomethyl-H3K9 peptide. • Reaction was carried out during 1 hour at room temperature. • Enzyme activity was stopped by adding 5 μl of cryptate-labeled anti-dimethyl-histone H3K9 antibody. Final concentration 150 nM. • Then, add 5 μl of streptavidin XL665 beads. Final concentration of 16 μM. • Read the plate after 1 hour of incubation at room temperature.
(§1) For each well, fluorescence was measured at 620 nm and 665 nm. A ratio (665 nm/620 nm) was then calculated in order to minimize medium interferences. Positive control was obtained in the presence of the vehicle of the compounds. Negative control was obtained in the absence of G9a enzyme activity. Calculated IC50 values were determined using GraphPrism using 4-parameters inhibition curve.
For orientation: In TR-FRET formats the signal depends on donor and acceptor labels being close together.

Assay [2] concerns the target human DNMT1 (Homo sapiens (Human), UniProt P26358). Kind of assay: DNMT1 enzyme activity assay (TR-FRET, EPIgeneous methyltransferase assay). The assay is classed as biochemical. Conditions: 15 minutes at 37° C. As for the experimental part: DNMT1 Enzyme Activity Assay
The biochemical assay to measure DNMT1 enzyme activity relies on time-resolved fluorescence energy transfer (TR-FRET) between lumi4-Tb (donor) and d2 (acceptor) using the EPlgeneous methyltransferase assay (CisBio Cat#62SAHPEB). TR-FRET is observed when antibody specific to S-adenosylhomocysteine labeled with Lumi4-Tb is incubated with d2-labeled S-adenosylhomocysteine. TR-FRET signal is inversely proportional to the concentration of SAH, product of DNMT1 enzyme activity, in the sample. The human DNMT1 was obtained from Reaction Biology Corp. (Cat# DMT-21-124).
Enzyme activity assay was carried out in a white 384-well plate in a final volume of 20 μl, as follow: • 4 μl of vehicle or studied compound 2.5× concentrated prepared in assay buffer (50 mM Tris-HCl, 1 mM EDTA, 1 mM DTT, 0.1% Triton X-100, 5% glycerol pH 7.5). Final percentage of DMSO was 0.5%. • 2 μl of […] DNMT1 enzyme diluted in assay buffer. Final concentration was 20 nM. • Start the reaction by adding 4 μl of substrate mixture containing 1 μM S-adenosylmethionine and 1 μM poly-deoxy inosine poly-deoxy cytosine (pdI-pdC) DNA. • Reaction was carried out during 15 minutes at 37° C. • Enzyme activity was stopped by adding 2 μl of buffer one of the EPIgeneous methyltransferase assay. • After 10 minutes at room temperature, it was added 4 μl of antibody specific to S-adenosylhomocysteine labeled with Lumi4-Tb 50× diluted in buffer two of the EPIgeneous methyltransferase assay. • Add 4 μl of d2-labeled S-adenosylhomocysteine 31× diluted in buffer two of the EPIgeneous methyltransferase assay. • Read the plate after 1 hour of incubation at room temperature.
as §1

Assay [3] has as its system CEMO-1 cells (acute lymphocytic leukemia, ALL). Kind of assay: Cell proliferation assay (CellTiter 96 Aqueous One), CEMO-1. The conditions noted are these: CEMO-1 (ALL), 48 hours of treatment. The assay is classed as cell-based. As for the experimental part: Cell proliferation was analyzed after 48 hours of in vitro treatment using the CellTiter 96 Aqueous One Solution Cell Proliferation Assay (Promega, Madison, W). This is a colorimetric method for determining the number of viable cells in proliferation.
For the assay, suspension cells were cultured by triplicate at a density of 1×10^6 cells/ml in 96-well plates (100.000 cells/well, 100 μl/well), except for OCI-Ly3 and OCI-Ly10 cell lines which were cultured at a density of 0.5×10^6 cells/ml (50,000 cells/well, 100 μl/well) and for HepG2, Hep3B and PLC/PRF/5 cell lines which were cultured at a density of 3000 cells/well, 100 μl/well). Adherent cells were obtained from 80-90% confluent flasks and 100 μl of cells were seeded at a density of 5000 cells/well in 96-well plates by triplicate. Before addition of the compounds, adherent cells were allowed to attach to the bottom of the wells for 12 hours. In all cases, only the 60 inner wells were used to avoid any border effects.
After 48 hours of treatment, plates with suspension cells were centrifuged at 800 g for 10 minutes and medium was removed. The plates with adherent cells were flicked to remove medium. Then, cells were incubated with 100 μl/well of medium and 20 μl/well of CellTiter 96 Aqueous One Solution reagent. After 1-3 hours of incubation at 37° C., absorbance was measured at 490 nm in a 96-well plate reader. The background absorbance was measured in wells with only cell line medium and solution reagent. Data was calculated as a percentage of total absorbance of treated cell/absorbance of non treated cells.
These cancer cell lines and primary cultures correspond to acute lymphocytic leukemia (ALL), CEMO-1, to activated B-cell-like diffuse large B-cell lymphoma (ABC-DLBCL), OCI-Ly3 and OCI-Ly10 and to hepatocellular carcinoma cells (HCC), HepG2, Hep3B and PLC/PRF/5.

Molecules are shown by their SMILES.

For 18 compounds, IC50 and GI50 results are on record in patent US10407423B2, “Compounds as inhibitors of DNA methyltransferases” (FUNDACIÓN PARA LA INVESTIGACIÓN MÉDICA APLICADA, priority 2015, dated 2019).

Chain of human G9a enzyme (Q96KQ7 whole entry): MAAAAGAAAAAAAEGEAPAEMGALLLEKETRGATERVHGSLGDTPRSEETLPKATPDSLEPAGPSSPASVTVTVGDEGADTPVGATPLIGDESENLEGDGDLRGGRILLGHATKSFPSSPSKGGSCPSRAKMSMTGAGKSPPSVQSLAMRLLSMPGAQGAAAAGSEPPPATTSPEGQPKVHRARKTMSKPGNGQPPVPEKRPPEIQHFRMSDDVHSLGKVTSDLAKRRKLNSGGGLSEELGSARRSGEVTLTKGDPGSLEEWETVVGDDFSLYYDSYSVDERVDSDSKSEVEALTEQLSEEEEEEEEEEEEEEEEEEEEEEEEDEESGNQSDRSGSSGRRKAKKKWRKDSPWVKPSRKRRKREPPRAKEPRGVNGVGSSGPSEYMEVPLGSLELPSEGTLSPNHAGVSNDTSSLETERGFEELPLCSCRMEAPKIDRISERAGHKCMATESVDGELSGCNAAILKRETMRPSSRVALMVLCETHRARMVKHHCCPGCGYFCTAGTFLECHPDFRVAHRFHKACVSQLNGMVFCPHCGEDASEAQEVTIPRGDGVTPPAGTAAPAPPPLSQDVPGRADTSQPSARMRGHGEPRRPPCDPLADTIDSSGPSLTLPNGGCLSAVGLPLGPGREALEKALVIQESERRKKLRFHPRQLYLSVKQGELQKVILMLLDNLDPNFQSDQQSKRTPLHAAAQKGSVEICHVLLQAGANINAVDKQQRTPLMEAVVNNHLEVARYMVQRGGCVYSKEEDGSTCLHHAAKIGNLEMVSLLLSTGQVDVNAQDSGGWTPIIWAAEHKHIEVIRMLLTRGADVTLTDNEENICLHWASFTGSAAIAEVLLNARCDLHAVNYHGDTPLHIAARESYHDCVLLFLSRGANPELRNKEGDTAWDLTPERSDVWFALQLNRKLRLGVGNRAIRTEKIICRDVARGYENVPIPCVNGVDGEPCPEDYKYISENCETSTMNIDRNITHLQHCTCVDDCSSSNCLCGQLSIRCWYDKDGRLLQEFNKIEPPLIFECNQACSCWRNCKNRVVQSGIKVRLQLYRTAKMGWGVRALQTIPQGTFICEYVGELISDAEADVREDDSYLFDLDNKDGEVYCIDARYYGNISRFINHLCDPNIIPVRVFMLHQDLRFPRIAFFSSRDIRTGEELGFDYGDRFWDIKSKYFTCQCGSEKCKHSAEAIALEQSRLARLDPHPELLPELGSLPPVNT
Chain of human DNMT1 (P26358 whole entry): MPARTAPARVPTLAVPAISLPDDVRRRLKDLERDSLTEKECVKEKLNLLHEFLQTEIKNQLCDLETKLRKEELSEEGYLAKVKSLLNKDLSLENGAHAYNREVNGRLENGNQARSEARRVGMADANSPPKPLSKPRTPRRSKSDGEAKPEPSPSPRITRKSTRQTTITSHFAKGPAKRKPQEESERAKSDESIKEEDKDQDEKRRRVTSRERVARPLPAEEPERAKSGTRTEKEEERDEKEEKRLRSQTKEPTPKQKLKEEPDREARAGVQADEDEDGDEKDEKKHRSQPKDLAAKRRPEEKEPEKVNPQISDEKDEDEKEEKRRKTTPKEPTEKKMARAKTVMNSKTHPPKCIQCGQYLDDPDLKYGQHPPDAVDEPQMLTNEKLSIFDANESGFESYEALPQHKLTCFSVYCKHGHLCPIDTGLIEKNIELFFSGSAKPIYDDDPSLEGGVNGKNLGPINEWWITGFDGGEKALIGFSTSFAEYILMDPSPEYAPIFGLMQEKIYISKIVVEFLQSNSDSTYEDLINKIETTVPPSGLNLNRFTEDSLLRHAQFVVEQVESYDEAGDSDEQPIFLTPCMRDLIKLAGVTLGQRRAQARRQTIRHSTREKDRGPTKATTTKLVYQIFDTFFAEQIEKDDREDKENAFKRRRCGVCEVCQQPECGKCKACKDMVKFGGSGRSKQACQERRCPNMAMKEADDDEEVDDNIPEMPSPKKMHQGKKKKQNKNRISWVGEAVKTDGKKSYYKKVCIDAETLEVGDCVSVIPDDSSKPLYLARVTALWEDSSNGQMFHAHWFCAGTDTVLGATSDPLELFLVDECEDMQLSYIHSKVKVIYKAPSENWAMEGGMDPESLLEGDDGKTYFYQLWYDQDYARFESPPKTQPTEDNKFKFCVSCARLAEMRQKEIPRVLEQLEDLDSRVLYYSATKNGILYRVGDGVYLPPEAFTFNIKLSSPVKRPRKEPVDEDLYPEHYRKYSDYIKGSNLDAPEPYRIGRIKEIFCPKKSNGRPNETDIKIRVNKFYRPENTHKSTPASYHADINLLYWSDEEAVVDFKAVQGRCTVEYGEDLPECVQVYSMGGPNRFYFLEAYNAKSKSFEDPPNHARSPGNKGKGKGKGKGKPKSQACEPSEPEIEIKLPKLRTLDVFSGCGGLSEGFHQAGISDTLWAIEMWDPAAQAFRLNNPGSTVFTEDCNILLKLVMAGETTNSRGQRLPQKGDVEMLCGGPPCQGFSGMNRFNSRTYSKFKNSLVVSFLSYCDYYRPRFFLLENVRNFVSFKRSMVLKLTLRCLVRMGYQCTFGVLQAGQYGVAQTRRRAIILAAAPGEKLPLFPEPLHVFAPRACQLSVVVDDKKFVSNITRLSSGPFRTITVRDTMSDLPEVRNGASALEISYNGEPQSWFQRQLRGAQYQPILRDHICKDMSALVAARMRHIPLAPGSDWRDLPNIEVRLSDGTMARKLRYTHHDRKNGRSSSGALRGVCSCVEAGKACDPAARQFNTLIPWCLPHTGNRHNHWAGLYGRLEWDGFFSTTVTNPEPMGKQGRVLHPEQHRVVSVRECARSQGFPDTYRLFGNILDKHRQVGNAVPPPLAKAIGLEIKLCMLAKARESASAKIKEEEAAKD

The term IC50 denotes the concentration needed to halve the response being measured. Low readings indicate greater potency in that assay, high ones weaker potency in that assay. For `COc1cc2c3c(c(-c4ccc(C)o4)nc2cc1OCCCN1CCCC1)CC[C@H](CC1CCN(C)CC1)N3` (single isomer, unassigned) [Compound 2-09], the concentration for half-maximal inhibition (IC50) is under 100 nM in assay [1] and 500 to 1000 nM in assay [2].
For `COc1cc2c3c(c(-c4ccc(C)o4)nc2cc1OCCCN1CCCC1)CC[C@@H](CC1CCN(C)CC1)N3` (single isomer, unassigned) [Compound 2-10], in that order: under 100 nM and 500 to 1000 nM.
For `COc1cc2c(cc1OCCCN1CCCC1)nc(-c1ccccc1)c1cc(CC3CCN(C)CC3)[nH]c12` [Compound 1-05], in that order: 100 to 500 nM and 500 to 1000 nM.
For `COc1cc2c(cc1OCCCN1CCCC1)nc(-c1cc(C)oc1C)c1cc(CC3CCN(C)CC3)[nH]c12` [Compound 1-06], in that order: 500 to 1000 nM and 1000 to 10000 nM.
With `COc1ccc2c3c(c(-c4ccc(C)o4)nc2c1)CCCN3` [Compound 2-01, 8-methoxy-5-(5-methyl-2-furyl)-1,2,3,4-tetrahydrobenzo[h][1,6]naphthyridine], the concentration for half-maximal inhibition (IC50) in assay [1] is over 10000 nM; in assay [2] it was 1000 to 10000 nM.
For `Cc1ccc(-c2nc3cc(OCCCN4CCCC4)ccc3c3c2CCCN3)o1` [Compound 2-02, 5-(5-methyl-2-furyl)-8-(3-pyrrolidin-1-ylpropoxy)-1,2,3,4-tetrahydrobenzo[h][1,6]naphthyridine], in that order: 1000 to 10000 nM and 500 to 1000 nM.
As a reminder, the GI50 is the concentration that inhibits growth by half. Higher therefore signals less potent growth inhibition. On to `COc1cc2c3c(c(-c4ccc(C)o4)nc2cc1OCCCN1CCCC1)CCCN3` [Compound 2-03, 9-methoxy-5-(5-methyl-2-furyl)-8-(3-pyrrolidin-1-ylpropoxy)-1,2,3,4-tetrahydrobenzo[h][1,6]naphthyridine], for which, in assay [3], the GI50 fell in the range of 1000 to 10000 nM. The concentration for half-maximal inhibition (IC50) in assay [1] is under 100 nM; in assay [2], 1000 to 10000 nM.
Turning to `COc1cc2c3c(c(-c4ccc(C)o4)nc2cc1OCCCN1CCCC1)CCCN3CCCN1CCCC1` [Compound 2-04, 9-methoxy-5-(5-methyl-2-furyl)-8-(3-pyrrolidin-1-ylpropoxy)-1-(3-pyrrolidin-1-ylpropyl)-3,4-dihydro-2H-benzo[h][1,6]naphthyridine], the IC50 in assay [1] is over 10000 nM; in assay [2], 500 to 1000 nM.
Regarding `COc1cc2c3c(c(-c4ccc(C)o4)nc2cc1OCCCN1CCCC1)CCC(CC1CCNCC1)N3` (stereo not shown) [Compound 2-05, 9-methoxy-5-(5-methyl-2-furyl)-2-(4-piperidylmethyl)-8-(3-pyrrolidin-1-ylpropoxy)-1,2,3,4-tetrahydrobenzo[h][1,6]naphthyridine], the IC50 was under 100 nM in assay [1] and 500 to 1000 nM in assay [2].
For `COc1cc2c3c(c(-c4ccc(C)o4)nc2cc1OCCCN1CCCC1)CCC(CC1CCN(C(C)=O)CC1)N3` (stereo not shown) [Compound 2-11, 1-[4-[[9-methoxy-5-(5-methyl-2-furyl)-8-(3-pyrrolidin-1-ylpropoxy)-1,2,3,4-tetrahydrobenzo[h][1,6]naphthyridin-2-yl]methyl]-1-piperidyl]ethanone], in that order: under 100 nM and 1000 to 10000 nM.
As for `COc1cc2c3c(c(-c4cc(C)oc4C)nc2cc1OCCCN1CCCC1)CCC(CC1CCN(C)CC1)N3` (stereo not shown) [Compound 2-13, 9-methoxy-5-(2,5-dimethyl-3-furyl)-2-[(1-methyl-4-piperidyl)methyl]-8-(3-pyrrolidin-1-ylpropoxy)-1,2,3,4-tetrahydrobenzo[h][1,6]naphthyridine], the IC50 in assay [1] was under 100 nM; in assay [2] it was 1000 to 10000 nM.
For `COc1cc2c(cc1OCCCN1CCCC1)nc(-c1ccc(C)o1)c1cccnc12` [Compound 3-01, 9-methoxy-5-(5-methyl-2-furyl)-8-(3-pyrrolidin-1-ylpropoxy)benzo[h]-[1,6]naphthyridine], in that order: 1000 to 10000 nM and 1000 to 10000 nM.
Turning to `COc1cc2c(cc1OCCCN1CCCC1)nc(-c1ccc(C)o1)c1ccc(CC3CCNCC3)nc12` [Compound 3-02, 9-methoxy-5-(5-methyl-2-furyl)-2-(4-piperidylmethyl)-8-(3-pyrrolidin-1-ylpropoxy)benzo[h][1,6]naphthyridine], the concentration for half-maximal inhibition (IC50) lay in the range of 100 to 500 nM in assay [1] and 500 to 1000 nM in assay [2].
For the compound `COc1cc2c(cc1OCCCN1CCCC1)nc(-c1ccc(C)o1)c1ccc(CC3CCN(C)CC3)nc12` [Compound 3-03, 9-methoxy-5-(5-methyl-2-furyl)-2-[(1-methyl-4-piperidyl)methyl]-8-(3-pyrrolidin-1-ylpropoxy)benzo[h][1,6]naphthyridine], the values for the IC50 in assay [1] and in assay [2] were under 100 nM and 1000 to 10000 nM, respectively.
For `COc1cc2c(cc1OCCCN1CCCC1)nc(-c1cc(C)oc1C)c1ccc(CC3CCN(C)CC3)nc12` [Compound 3-04, 9-methoxy-5-(2,5-dimethyl-3-furyl)-2-[(1-methyl-4-piperidyl)methyl]-8-(3-pyrrolidin-1-ylpropoxy)benzo[h][1,6-]naphthyridine], in that order: 100 to 500 nM and over 10000 nM.
Regarding `COc1cc2c(cc1OCCCN1CCCC1)nc(-c1ccc(C)o1)c1c(=O)n(C3CCN(C)CC3)[nH]c12` [Compound 4-03, 8-methoxy-4-(5-methyl-2-furyl)-2-(1-methyl-4-piperidyl)-7-(3-pyrrolidin-1-ylpropoxy)-1H-pyrazolo[4,3-c]quinolin-3-one], the values for the IC50 in assay [1] and in assay [2] were over 10000 nM and 1000 to 10000 nM, respectively.
As for `COc1cc2c(cc1OCCCN1CCCC1)nc(-c1ccc(C)o1)c1c(=O)n(CC3CCN(C)CC3)[nH]c12` [Compound 4-04, 8-methoxy-4-(5-methyl-2-furyl)-2-[(1-methyl-4-piperidyl)methyl]-7-(3-pyrrolidin-1-ylpropoxy)-1H-pyrazolo[4,3-c]quinolin-3-one], the IC50 in assay [1] was over 10000 nM; in assay [2] it was 1000 to 10000 nM.
`COc1cc2c(cc1OCCCN1CCCC1)nc(-c1ccc(C)o1)c1c(=O)n(CC3CCN(C)CC3)n(CC3CCN(C)CC3)c12` [Compound 4-05, 8-methoxy-4-(5-methyl-2-furyl)-1,2-bis[(1-methyl-4-piperidyl)methyl]-7-(3-pyrrolidin-1-ylpropoxy)pyrazolo[4,3-c]quinolin-3-one]: the IC50 in assay [1] was over 10000 nM; in assay [2], 1000 to 10000 nM.
